The results in this text go back to ChEMBL document CHEMBL1201862, “PubChem BioAssay data set” (2004).

Test systems include HOP-62; Malme-3M; UACC-62; SF-268; HL-60; NCI-H23; M19-MEL; DMS-273; NCI-H460; OVCAR-8; PC-3; SF-295; SK-MEL-28; SK-OV-3; KM-20L2; NCI-H522; K562; TK-10; HOP-92; RPMI-8226.
Common to all, as to test: NCI tumour cell line growth inhibition, 48 h

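Protocol summary: plate cells (96-well), add compound at 5 concentrations, incubate 48 h, interpolate endpoints linearly. The concentration for 50% growth inhibition is given as GI50.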 Activity calls are given as the source filed them. Rule as the data show it: active = GI50 up to about 1.1 µM and inactive = higher.

Consider `CN1CCN(CCCN2c3ccccc3Sc3ccc(C(F)(F)F)cc32)CC1`, for which the GI50 with HOP-62 is 13.1 µM (inactive); with Malme-3M, 2.69 µM (inactive); in the experiment with UACC-62, 2.1 µM (inactive); in the experiment with SF-268, 12.4 µM (inactive); in the experiment on HL-60, 6.14 µM (inactive); in the experiment with NCI-H23 it was 14.4 µM (inactive). Besides, the GI50 is 1.87 µM (inactive) in the experiment on M19-MEL; 6.65 µM (inactive) in the experiment on DMS-273; 3.86 µM (inactive) in the experiment on NCI-H460; 15.9 µM (inactive) in the experiment on OVCAR-8; 4.72 µM (inactive) with PC-3; 9.89 µM (inactive) in the experiment on SF-295. For the same compound, the GI50 with SK-MEL-28 is 1.82 µM (inactive); in the experiment with SK-OV-3, 14.6 µM (inactive); in the experiment on KM-20L2, 2.27 µM (inactive).

With `COC1(OC)c2ccccc2C2(O)c3ccccc3C(=O)C12` (centres undefined), the GI50 is 38 µM (inactive) with Malme-3M; 13.6 µM (inactive) in the experiment on UACC-62; > 100 µM (inactive) in the experiment with SF-268; 10.2 µM (inactive) in the experiment on NCI-H522; 13.5 µM (inactive) in the experiment with HL-60; 47.4 µM (inactive) in the experiment on NCI-H23. Also, the GI50 with M19-MEL is 34.7 µM (inactive); in the experiment with K562, 12.6 µM (inactive); with DMS-273, 25.2 µM (inactive); in the experiment on NCI-H460, 26.4 µM (inactive); in the experiment with OVCAR-8, 39.4 µM (inactive); in the experiment with SF-295, 54 µM (inactive). For the same compound, the GI50 is > 100 µM (inactive) with SK-MEL-28; 37.3 µM (inactive) in the experiment with TK-10; 70.1 µM (inactive) with SK-OV-3; 46.6 µM (inactive) in the experiment with HOP-92; 40.6 µM (inactive) in the experiment on KM-20L2; 5.79 µM (inactive) with RPMI-8226.

Take `Cc1ccc(C)c(NC(=O)C(=O)CC(=O)c2cccc3ccccc23)c1`: the GI50 in the experiment on HOP-62, with Malme-3M, in the experiment on UACC-62, in the experiment on SF-268, in the experiment with NCI-H522 and in the experiment on HL-60 was > 100 µM (inactive) throughout. The GI50 with NCI-H23, with M19-MEL, with K562, in the experiment with DMS-273, with NCI-H460 and in the experiment with OVCAR-8 was > 100 µM (inactive) in each case. Moreover, the GI50 with SF-295, with SK-MEL-28, with TK-10, in the experiment on SK-OV-3, in the experiment with HOP-92 and in the experiment on KM-20L2 was > 100 µM (inactive) throughout. For the same compound, the GI50 in the experiment on RPMI-8226 was > 100 µM (inactive).

As for `CSC(=S)N/N=C/c1nccc2ccccc12`, the GI50 was 2.25 µM (inactive) in the experiment with HOP-62; 1.34 µM (inactive) in the experiment with Malme-3M; 1.29 µM (inactive) in the experiment on UACC-62; 1.04 µM (active) in the experiment with SF-268; 0.34 µM (active) in the experiment with NCI-H522; 0.372 µM (active) in the experiment on HL-60. Further, the GI50 in the experiment with NCI-H23 is 1.42 µM (inactive); with M19-MEL, 2.29 µM (inactive); in the experiment with K562 it was 0.392 µM (active); in the experiment with DMS-273, 1.85 µM (inactive); in the experiment with NCI-H460, 1.09 µM (active); with OVCAR-8 it was 0.454 µM (active). Further, the GI50 was 1.48 µM (inactive) in the experiment on SF-295; 2.19 µM (inactive) in the experiment with SK-MEL-28; 7.08 µM (inactive) in the experiment on TK-10; 6.79 µM (inactive) with SK-OV-3; 1.37 µM (inactive) in the experiment with HOP-92; 0.43 µM (active) with KM-20L2. The GI50 in the experiment with RPMI-8226 was 0.522 µM (active).

As to `CCCCCCCCCCCCC/C=C1\C[C@H](O)COC1=O`, the GI50 is 16.6 µM (inactive) in the experiment on HOP-62; 21 µM (inactive) with Malme-3M; 13.7 µM (inactive) in the experiment with UACC-62; 20.4 µM (inactive) in the experiment with SF-268; 17.1 µM (inactive) in the experiment with NCI-H522; 19.8 µM (inactive) in the experiment on HL-60. Besides, the GI50 in the experiment with NCI-H23 was 20.4 µM (inactive); with M19-MEL, 18.4 µM (inactive); in the experiment with K562 it was 15.9 µM (inactive); in the experiment on DMS-273, 14.4 µM (inactive); in the experiment with NCI-H460, 17.3 µM (inactive); with SF-295, 18.1 µM (inactive). For the same compound, the GI50 was 16.2 µM (inactive) with SK-MEL-28; 17.6 µM (inactive) in the experiment on TK-10; 20.8 µM (inactive) with SK-OV-3; 11.6 µM (inactive) with HOP-92; 16.9 µM (inactive) in the experiment on KM-20L2; 17.5 µM (inactive) in the experiment with RPMI-8226.

As to `N#CC(/C(CCCC(=O)Nc1cccc([N+](=O)[O-])c1)=N\NC(=O)c1c(O)ccc2ccccc12)c1nc2ccccc2s1` (centres undefined), the GI50 in the experiment with HOP-62 was 27.8 µM (inactive); with Malme-3M it was 35 µM (inactive); in the experiment with SF-268, 13.1 µM (inactive); with NCI-H522 it was 25.8 µM (inactive); with HL-60, 3.16 µM (inactive); in the experiment on NCI-H23, 37.5 µM (inactive). The GI50 is 16.4 µM (inactive) in the experiment on M19-MEL; 7.89 µM (inactive) in the experiment with K562; 8.63 µM (inactive) in the experiment with DMS-273; 13.7 µM (inactive) in the experiment with NCI-H460; 18.5 µM (inactive) in the experiment with OVCAR-8; 28.6 µM (inactive) in the experiment with SF-295. Besides, the GI50 in the experiment with SK-MEL-28 is 21.5 µM (inactive); with SK-OV-3, 25.5 µM (inactive); in the experiment with HOP-92, 53.1 µM (inactive); in the experiment with KM-20L2, 27 µM (inactive).

On to `COc1cc2c(cc1O)C(C)Cc1cc3c(cc1N(C)CC2)OCO3` (centres undefined), for which the GI50 with HOP-62 was 10.6 µM (inactive); in the experiment on Malme-3M, 3.12 µM (inactive); with UACC-62, 3.5 µM (inactive); with SF-268, 5.3 µM (inactive); with NCI-H522, 2.18 µM (inactive); in the experiment on HL-60, 4.61 µM (inactive). Further, the GI50 in the experiment with NCI-H23 was 4.07 µM (inactive); with M19-MEL, 5.81 µM (inactive); in the experiment on K562, 2.8 µM (inactive); in the experiment with DMS-273, 2.87 µM (inactive); with NCI-H460, 3.35 µM (inactive); in the experiment with OVCAR-8 it was 9.25 µM (inactive). Besides, the GI50 in the experiment with SF-295 was 2.78 µM (inactive); in the experiment on SK-MEL-28, 6.22 µM (inactive); in the experiment on TK-10, 27.3 µM (inactive); with SK-OV-3 it was 3.32 µM (inactive); in the experiment with HOP-92 it was 4.66 µM (inactive); in the experiment with KM-20L2, 12.4 µM (inactive). The GI50 with RPMI-8226 was 4.09 µM (inactive).

As for `COc1ccc(C(=O)OC2C=COC(C)C2OC(=O)c2ccc(OC)cc2)cc1` (centres undefined), the GI50 with HOP-62 is > 83.6 µM (inactive); in the experiment with Malme-3M, 18.2 µM (inactive); with UACC-62 it was 18.4 µM (inactive); in the experiment with SF-268 it was 15.8 µM (inactive); in the experiment with NCI-H522 it was 16.5 µM (inactive); in the experiment with HL-60, 10.6 µM (inactive). For the same compound, the GI50 with NCI-H23 is 16.4 µM (inactive); in the experiment with M19-MEL it was 30.7 µM (inactive); in the experiment with K562, 17 µM (inactive); in the experiment on DMS-273 it was 23.3 µM (inactive); in the experiment on NCI-H460 it was 40.7 µM (inactive); with OVCAR-8, 23.6 µM (inactive). For the same compound, the GI50 with SF-295 is 33.2 µM (inactive); in the experiment on SK-MEL-28, 16.4 µM (inactive); in the experiment on TK-10 it was 52.6 µM (inactive); with SK-OV-3, > 100 µM (inactive); in the experiment with HOP-92 it was 17.5 µM (inactive); with KM-20L2 it was 27.6 µM (inactive). In addition, the GI50 in the experiment with RPMI-8226 is 8.22 µM (inactive).

With `CC1OC(n2ccc3ccc([N+](=O)[O-])cc32)C(O)C(O)C1O` (centres undefined), the GI50 in the experiment on HOP-62, in the experiment with Malme-3M, with UACC-62, with SF-268, in the experiment on NCI-H522 and in the experiment on HL-60 was > 100 µM (inactive) each time. For the same compound, the GI50 in the experiment on NCI-H23, with M19-MEL, in the experiment with K562, in the experiment with DMS-273, in the experiment on NCI-H460 and in the experiment on OVCAR-8 was > 100 µM (inactive) throughout. The GI50 in the experiment on SF-295, with SK-MEL-28, in the experiment with TK-10, with SK-OV-3, in the experiment with HOP-92 and in the experiment with KM-20L2 was > 100 µM (inactive) throughout. Also, the GI50 in the experiment with RPMI-8226 is > 100 µM (inactive).

Turning to `[O-]/[N+](=C\c1ccccc1)[C@H](COCc1ccccc1)c1ccccc1`, the GI50 in the experiment on HOP-62 was > 100 µM (inactive); in the experiment on Malme-3M, > 100 µM (inactive); in the experiment on SF-268 it was 55.2 µM (inactive); with NCI-H522, 29.5 µM (inactive); with HL-60, 25.2 µM (inactive); in the experiment on NCI-H23 it was 4.45 µM (inactive). Moreover, the GI50 with M19-MEL is > 100 µM (inactive); in the experiment on K562, 48.9 µM (inactive); with DMS-273, 93.8 µM (inactive); with NCI-H460, > 100 µM (inactive); in the experiment on OVCAR-8 it was > 100 µM (inactive); in the experiment on SF-295, 36 µM (inactive). In addition, the GI50 is > 100 µM (inactive) in the experiment with SK-MEL-28; > 100 µM (inactive) in the experiment on TK-10; > 100 µM (inactive) in the experiment on SK-OV-3; 24.8 µM (inactive) with HOP-92; > 100 µM (inactive) in the experiment on KM-20L2; 30.2 µM (inactive) with RPMI-8226.

For `COC(=O)[C@@]1(O)CC(C)C=C1C=O` (some centres undefined), the GI50 in the experiment on HOP-62 was > 100 µM (inactive); in the experiment with Malme-3M, > 100 µM (inactive); in the experiment with UACC-62, 73.6 µM (inactive); with SF-268, 43.2 µM (inactive); in the experiment with NCI-H522, 20 µM (inactive); with HL-60 it was 22.1 µM (inactive). Besides, the GI50 is > 100 µM (inactive) in the experiment with NCI-H23; 80.7 µM (inactive) in the experiment on M19-MEL; 55 µM (inactive) in the experiment with K562; 19.2 µM (inactive) with DMS-273; 20.6 µM (inactive) in the experiment with NCI-H460; > 100 µM (inactive) in the experiment with OVCAR-8. The GI50 in the experiment on SF-295, with SK-MEL-28, in the experiment with TK-10, in the experiment with SK-OV-3, in the experiment with HOP-92 and in the experiment on KM-20L2 was > 100 µM (inactive) throughout. Besides, the GI50 with RPMI-8226 is > 100 µM (inactive).
